Measured values as given in ChEMBL document CHEMBL3867453, “Total Synthesis of (±)-Isoperbergins and Correction of the Chemical Structure of Perbergin” (2016).
Values after ≈ are worked out from the molar mass of the structure shown.

Assays:
Assay type in all cases: functional
Staphylococcus aureus = experiment: Antibacterial activity against Staphylococcus aureus after 24 hrs by MTT based microdilution assay
[1] = system: Mycolicibacterium smegmatis; experiment: Antibacterial activity against Mycobacterium smegmatis after 48 hrs by MTT based microdilution assay
Pseudomonas aeruginosa = experiment: Antibacterial activity against Pseudomonas aeruginosa after 24 hrs by MTT based microdilution assay
Escherichia coli = experiment: Antibacterial activity against Escherichia coli after 24 hrs by MTT based microdilution assay
Rhodococcus fascians = experiment: Antibacterial activity against Rhodococcus fascians after 24 hrs by MTT based microdilution assay; settings: Rhodococcoides fascians

SMILES	MIC (Staphylococcus aureus) [µg/mL]	MIC [1] [µg/mL]	MIC (Pseudomonas aeruginosa) [µg/mL]	MIC (Escherichia coli) [µg/mL]	MIC (Rhodococcus fascians) [µg/mL]
COc1ccc(C2COc3c(C/C=C(/C)CCC=C(C)C)c(O)cc(O)c3C2=O)c(O)c1O (racemic)	5 (≈ 11 µM)	5 (≈ 11 µM)	> 50	> 50	12.5 (≈ 27.5 µM)
COc1ccc(C2COc3cc(O)cc(O)c3C2=O)c(O)c1O (racemic)	> 50	> 50	> 50	> 50	> 50
COc1ccc(C2COc3c(C/C=C(\C)CCC=C(C)C)c(O)cc(O)c3C2=O)c(O)c1O (racemic)	5 (≈ 11 µM)	5 (≈ 11 µM)	> 50	> 50	12.5 (≈ 27.5 µM)
CN[C@@H]1[C@@H](O[C@H]2O[C@H](CO)[C@@H](N)[C@H](O)[C@H]2O)O[C@H]2C[C@@H](N)[C@@H](O[C@H]3[C@H](O)[C@@H](O)[C@H](N)C[C@@H]3N)O[C@@H]2[C@@H]1O	30 (≈ 55.6 µM)	2.5 (≈ 4.63 µM)	50 (≈ 92.7 µM)	> 50	50 (≈ 92.7 µM)
CC1(C)S[C@@H]2[C@H](NC(=O)[C@H](N)c3ccccc3)C(=O)N2[C@H]1C(=O)O [AMPICILLIN]	> 50	> 50	< 5	< 5	20 (≈ 57.2 µM)
